What was measured:
[1] = target: T1, BuChE (EC 3.1.1.8) from horse serum (Equus caballus, UniProt P81908); assay: biochemical; type: biochemical; settings: for IC50: BuChE from horse serum, mean ± SEM of three experiments; for selective index (selectivity on BuChE): selectivity on BuChE over AChE (eeAChE, eqBuChE)
T1 construct: purchased Sigma-Aldrich C0663; host or cells: equine serum
Method: (§1) AChE (EC 3.1.1.7, Type VI-S, from electric eel, C3389; from human, C1682) and BuChE (EC 3.1.1.8, from equine serum, C0663; from human, B4186), 5,5'-dithiobis (2-nitrobenzoic acid) (DTNB, D218200), acetylthiocholine iodide (ATC, A5751), and butyrylthiocholine iodide (BTC, B3253) were obtained from Sigma-Aldrich (St. Louis, MO).
(§2) The inhibitory effects of the synthesised compounds in this paper were evaluated according to our previously reported method. […] ATC/BTC iodide solution (0.075 M) was prepared in deionised water. […] The assay buffer was prepared as follows: potassium dihydrogen phosphate (1.36 g, 10 mmol) was dissolved in 100 ml of water. The pH of the solution was then adjusted to 8.0 ± 0.1 with KOH. Stock solutions of the test samples were dissolved in ethanol to give a final concentration of 10^−4 M when diluted to the final volume of 3.32 ml. For each compound, a dilution series of at least five different concentrations (normally 10^−5–10^−9 M) were prepared.
(§3) For measurement, a cuvette containing 3.0 ml of phosphate buffer, 100 µL of AChE or BuChE, 100 µL of DTNB, and 100 µL of the test compound solution were added in sequence. The reaction was initiated after adding 20 µL of ATC or BTC, and the solution was mixed immediately. […] For the reference value, 100 µL of water replaced the test compound solution. For the blank control, additionally 100 µL of water replaced the enzyme solution. The measurement for each concentration was assayed in triplicate. GraphPad Prism 5 was used for data processing. The inhibition curve was fitted by plotting percentage enzyme activity (100% for the reference) versus logarithm of test compound concentration. The IC50 values were calculated according to the curve, and the data were shown in mean ± SEM.
(§4) The inhibitory effects on ChEs of all the target compounds were determined according to Ellman’s method. AChE from electrophorus electricus (eeAChE) and BuChE from equine serum (eqBuChE) were used in the assays.

[2] = target: T2, AChE (EC 3.1.1.7) from electric eel (Electrophorus electricus, UniProt O42275); assay: biochemical; settings: for IC50: AChE from electric eel, mean ± SEM of three experiments; for Selectivity index (SI) = BuChE IC50/AChE IC50: eqBuChE IC50 / eeAChE IC50
T2 construct: purchased Sigma-Aldrich C3389
Method: as §1, §2, §3, §4

T1 sequence (P81908 whole entry): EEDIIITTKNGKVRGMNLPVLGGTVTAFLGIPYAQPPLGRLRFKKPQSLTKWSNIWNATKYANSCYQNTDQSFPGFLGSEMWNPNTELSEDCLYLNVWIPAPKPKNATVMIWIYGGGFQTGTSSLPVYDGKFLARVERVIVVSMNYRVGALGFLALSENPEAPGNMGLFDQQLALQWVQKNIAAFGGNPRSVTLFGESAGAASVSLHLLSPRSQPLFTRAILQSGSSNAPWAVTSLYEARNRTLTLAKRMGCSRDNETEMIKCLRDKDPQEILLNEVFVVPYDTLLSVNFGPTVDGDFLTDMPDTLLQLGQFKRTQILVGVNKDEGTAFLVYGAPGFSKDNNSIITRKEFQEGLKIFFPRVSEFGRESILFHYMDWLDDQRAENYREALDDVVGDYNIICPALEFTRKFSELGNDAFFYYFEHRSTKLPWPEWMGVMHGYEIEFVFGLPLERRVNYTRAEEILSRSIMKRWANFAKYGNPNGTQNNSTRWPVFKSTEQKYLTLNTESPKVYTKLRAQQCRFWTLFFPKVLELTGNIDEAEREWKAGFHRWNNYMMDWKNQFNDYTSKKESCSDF
T2 sequence (O42275 24-633): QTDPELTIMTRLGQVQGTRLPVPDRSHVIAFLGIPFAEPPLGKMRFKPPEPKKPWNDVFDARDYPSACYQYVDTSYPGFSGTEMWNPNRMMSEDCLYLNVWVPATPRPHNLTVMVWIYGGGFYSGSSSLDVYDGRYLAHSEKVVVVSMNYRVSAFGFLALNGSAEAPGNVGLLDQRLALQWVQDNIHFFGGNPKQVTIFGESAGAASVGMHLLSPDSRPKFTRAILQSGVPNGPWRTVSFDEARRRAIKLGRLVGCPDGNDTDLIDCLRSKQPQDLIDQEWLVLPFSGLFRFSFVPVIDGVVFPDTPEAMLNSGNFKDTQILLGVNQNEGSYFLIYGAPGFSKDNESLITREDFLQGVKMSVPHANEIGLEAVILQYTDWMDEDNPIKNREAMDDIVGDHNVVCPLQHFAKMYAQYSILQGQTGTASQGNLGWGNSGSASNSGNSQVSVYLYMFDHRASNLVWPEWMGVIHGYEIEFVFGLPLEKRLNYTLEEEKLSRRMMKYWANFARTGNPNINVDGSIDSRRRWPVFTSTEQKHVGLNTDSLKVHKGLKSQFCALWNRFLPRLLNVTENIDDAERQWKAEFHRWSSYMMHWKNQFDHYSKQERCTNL

| SMILES | IC50 [1] [nM] | IC50 [2] [nM] | Selectivity index (SI) = BuChE IC50/AChE IC50 [2] | selective index (selectivity on BuChE) [1] |
| --- | --- | --- | --- | --- |
| O=C(/C=C/c1ccccc1)NCCNc1c2c(nc3ccccc13)CCCC2 [Compound 9] | 69.1 ± 27.3 | 328 ± 122 | 0.2 | – |
| O=C(/C=C/c1ccccc1)NCCCNc1c2c(nc3ccccc13)CCCC2 [Compound 10] | 3.5 ± 0.4 | 100 ± 5.2 | 0.03 | 28.7 |
| O=C(C=Cc1ccccc1)NCCCCNc1c2c(nc3ccccc13)CCCC2 [Compound 11, N-(4-((1,2,3,4-tetrahydroacridin-9-yl)amino)butyl)cinnamamide] | 2.9 ± 0.4 | 209 ± 76 | 0.01 | 71.17 |
| O=C(C=Cc1ccccc1)NCCCCCCNc1c2c(nc3ccccc13)CCCC2 [Compound 12, N-(6-((1,2,3,4-tetrahydroacridin-9-yl)amino)hexyl)cinnamamide] | 34.4 ± 16.6 | 26.5 ± 10.7 | 1.3 | – |
| O=C(/C=C/c1ccccc1)NCCCCCCCCNc1c2c(nc3ccccc13)CCCC2 [Compound 13] | 7.8 ± 4.7 | 22.8 ± 9.2 | 0.3 | – |
| Cc1ccccc1/C=C/C(=O)NCCCCCCNc1c2c(nc3ccccc13)CCCC2 [Compound 14, (E)-N-(6-((1,2,3,4-tetrahydroacridin-9-yl)amino)hexyl)-3-(o-tolyl)acrylamide] | 6 ± 1.5 | 36 ± 12.3 | 0.2 | – |
| Cc1cccc(/C=C/C(=O)NCCCCCCNc2c3c(nc4ccccc24)CCCC3)c1 [Compound 15, (E)-N-(6-((1,2,3,4-tetrahydroacridin-9-yl)amino)hexyl)-3-(m-tolyl)acrylamide] | 37.3 ± 7.2 | 53.1 ± 6.9 | 0.7 | – |
| Cc1ccc(/C=C/C(=O)NCCCCCCNc2c3c(nc4ccccc24)CCCC3)cc1 [Compound 16, (E)-N-(6-((1,2,3,4-tetrahydroacridin-9-yl)amino)hexyl)-3-(p-tolyl)acrylamide] | 54.4 ± 11.7 | 22 ± 3.7 | 2.5 | – |
| O=C(/C=C/c1ccccc1[N+](=O)[O-])NCCCCCCNc1c2c(nc3ccccc13)CCCC2 [Compound 17, (E)-3-(2-nitrophenyl)-N-(6-((1,2,3,4-tetrahydroacridin-9-yl)amino)hexyl)acrylamide] | 3.6 ± 0.3 | 17.5 ± 3.7 | 0.2 | – |
| O=C(/C=C/c1cccc([N+](=O)[O-])c1)NCCCCCCNc1c2c(nc3ccccc13)CCCC2 [Compound 18, (E)-3-(3-nitrophenyl)-N-(6-((1,2,3,4-tetrahydroacridin-9-yl)amino)hexyl)acrylamide] | 6.8 ± 0.6 | 3.6 ± 0.5 | 1.9 | – |
| O=C(/C=C/c1ccc(Cl)c([N+](=O)[O-])c1)NCCCCCCNc1c2c(nc3ccccc13)CCCC2 [Compound 20, (E)-3-(4-chloro-3-nitrophenyl)-N-(6-((1,2,3,4-tetrahydroacridin-9-yl)amino)hexyl)acrylamide] | 11.1 ± 2.2 | 6.2 ± 2 | 1.8 | – |
| O=C(/C=C/c1ccccc1C(F)(F)F)NCCCCCCNc1c2c(nc3ccccc13)CCCC2 [Compound 21, (E)-N-(6-((1,2,3,4-tetrahydroacridin-9-yl)amino)hexyl)-3–(2-(trifluoromethyl)phenyl)acrylamide] | 2.4 ± 0.6 | 41.7 ± 8.5 | 0.04 | – |
| O=C(/C=C/c1cccc(C(F)(F)F)c1)NCCCCCCNc1c2c(nc3ccccc13)CCCC2 [Compound 22, (E)-N-(6-((1,2,3,4-tetrahydroacridin-9-yl)amino)hexyl)-3–(3-(trifluoromethyl)phenyl)acrylamide] | 81.1 ± 15.7 | 61.3 ± 16.7 | 1.3 | – |
| O=C(/C=C/c1ccc(C(F)(F)F)cc1)NCCCCCCNc1c2c(nc3ccccc13)CCCC2 [Compound 23, (E)-N-(6-((1,2,3,4-tetrahydroacridin-9-yl)amino)hexyl)-3–(4-(trifluoromethyl)phenyl)acrylamide] | 16.4 ± 1.8 | 8.1 ± 0.3 | 2.0 | – |
| O=C(/C=C/c1ccc(F)cc1)NCCCCCCNc1c2c(nc3ccccc13)CCCC2 [Compound 24, (E)-3-(4-fluorophenyl)-N-(6-((1,2,3,4-tetrahydroacridin-9-yl)amino)hexyl)acrylamide] | 65.9 ± 21.4 | 15.4 ± 3.3 | 4.3 | – |
| O=C(/C=C/c1ccccc1Cl)NCCCCCCNc1c2c(nc3ccccc13)CCCC2 [Compound 25, (E)-3-(2-chlorophenyl)-N-(6-((1,2,3,4-tetrahydroacridin-9-yl)amino)hexyl)acrylamide] | 8.7 ± 2.7 | 14.2 ± 3.2 | 0.6 | – |
| O=C(/C=C/c1cccc(Cl)c1)NCCCCCCNc1c2c(nc3ccccc13)CCCC2 [Compound 26, (E)-3-(3-chlorophenyl)-N-(6-((1,2,3,4-tetrahydroacridin-9-yl)amino)hexyl)acrylamide] | 9.2 ± 2.5 | 16.2 ± 6.5 | 0.6 | – |
| O=C(/C=C/c1ccc(Br)cc1)NCCCCCCNc1c2c(nc3ccccc13)CCCC2 [Compound 28, (E)-3-(4-bromophenyl)-N-(6-((1,2,3,4-tetrahydroacridin-9-yl)amino)hexyl)acrylamide] | 29.9 ± 1.8 | 19.1 ± 2 | 1.6 | – |
| N#Cc1cccc(/C=C/C(=O)NCCCCCCNc2c3c(nc4ccccc24)CCCC3)c1 [Compound 29] | 68.5 ± 13.6 | 5.1 ± 0.8 | 13.4 | – |
| COc1ccc(/C=C/C(=O)NCCCCCCNc2c3c(nc4ccccc24)CCCC3)c(OC)c1OC [Compound 31, (E)-N-(6-((1,2,3,4-tetrahydroacridin-9-yl)amino)hexyl)-3–(2,3,4-trimethoxyphenyl)acrylamide] | 8.1 ± 2 | 24.1 ± 8.1 | 0.3 | – |
| COc1cc(/C=C/C(=O)NCCCCCCNc2c3c(nc4ccccc24)CCCC3)cc(OC)c1OC [Compound 32, (E)-N-(6-((1,2,3,4-tetrahydroacridin-9-yl)amino)hexyl)-3–(3,4,5-trimethoxyphenyl)acrylamide] | 3.4 ± 0.4 | 6.4 ± 2.2 | 0.5 | – |
| O=C(/C=C/c1cccc(O)c1)NCCCCCCNc1c2c(nc3ccccc13)CCCC2 [Compound 33, (E)-3-(3-hydroxyphenyl)-N-(6-((1,2,3,4-tetrahydroacridin-9-yl)amino)hexyl)acrylamide] | 25.1 ± 6.5 | 6.4 ± 2.1 | 3.9 | – |
| O=C(/C=C/c1ccc(O)cc1)NCCCCCCNc1c2c(nc3ccccc13)CCCC2 [Compound 34, (E)-3-(4-hydroxyphenyl)-N-(6-((1,2,3,4-tetrahydroacridin-9-yl)amino)hexyl)acrylamide] | 43.5 ± 9.3 | 2.2 ± 0.3 | 19.8 | – |
| COc1cc(/C=C/C(=O)NCCCCCCNc2c3c(nc4ccccc24)CCCC3)ccc1OCc1ccccc1 [Compound 36] | 29.8 ± 7.3 | 86.3 ± 30 | 0.3 | – |
| COc1cc(/C=C/C(=O)NCCCCCCNc2c3c(nc4ccccc24)CCCC3)ccc1OCc1ccc(Cl)cc1 [Compound 37] | 22.6 ± 7.1 | 104 ± 26.4 | – | – |

From PMC7011792 (Journal of Enzyme Inhibition and Medicinal Chemistry, 2017)
